# Experimental data published in patent publication EP2077092A2, “System and Methods for Screening or Analyzing Targets” (Taipei Veterans General Hospital, priority 2007, dated 2009).
# How the values were obtained:
# Assay type in all cases: cell-based, Sprague-Dawley (SD) rats
# [1] = test system: NSCs; assay: Immunofluorescent assay of serotonin (5-HT)-positive cells in differentiating NSCs; conditions: Day 7 culture of IM-treated NSCs vs non IM-treated NSCs, p<0.05
# [2] = test system: TNF-α; assay: TNF-α ELISA in LPS-treated NSCs; conditions: vs only LPS-treated NSCs, IM 3 µM, p<0.05
# [3] = test system: Bad; assay: Real-time RT-PCR of Bad mRNA in IM-treated NSCs; conditions: Day 3, Day 5, and Day 7 of IM-treated NSCs
# Protocol: (§1) All animals used were treated in accordance with the Animal Care and Use Committee guideline at Taipei Veterans General Hospital. The protocol of the present study was also approved by the committee. Adult Sprague-Dawley (SD) rats (8 weeks old, 250 g) were anesthetized with intraperitoneal phenobarbital (Sigma, USA), and the location of their brains was mapped. Then, the brain […]. In brief, tissues from the hippocampus of adult rats were dissociated and incubated in Hank's balanced salt solution (HBSS) containing collagenase (78 units/ml) and hyaluronidase (38 units/ml) for 10 minutes at 37°C. The tissues were then mechanically dissected and placed in a trypsin solution (1.33 mg/ml) at 37°C for another 10 minutes. Dissociated cells were then centrifuged at 150 GG for 5 minutes. […] Viable cells were counted by trypan blue exclusion and plated as 5000 cells/200 µL per well in 96-well plates (Coming Inc, Acton, MA, USA) with no substrate pretreatment. […]
# For real-time RT-PCR, the total RNA was extracted using the RNAeasy kit (Qiagen, Valencia, CA, USA). […] The quantification in the unknown samples was performed with LightCycler Relative Quantification Software version 3.3 (Roche Molecular Systems, Alameda, CA, USA). […]
# [4] = test system: NSCs; assay: MTT cell viability assay of IM-treated NSCs; conditions: 3 µM IM, Day 3, Day 5 and Day 7 cultures, p<0.05
# Protocol: as §1, with “37°C.” for “37°C. The tissues were then mechanically dissected and placed in a trypsin solution (1.33 mg/ml) at 37°C for another 10 minutes. Dissociated cells were then centrifuged at 150 GG for 5 minutes.”
# IM was purchased from Sigma Chem. Co., St Louis, MO, USA. […] The amount of MTT fromazon product was determined using a microplate reader and the absorbance was measured at 560 nm (SpectraMax 250, Molecular Devices, Sunnyvale, CA, USA). […] The activities of caspases 8 and 3 (Medical and Biological Laboratories Co., Ltd., Nagoya, Japan), and the concentration of IL-6, IL-1 and TNF-α (Pharmingen, San Diego, CA, USA) were determined by ELISA kits and quantified by reading at 490 nm (MRX; Dynatech Laboratories, Chantilly, VA, USA). Each individual sample was analyzed in triplicate.
# [5] = test system: IL-6; assay: IL-6 ELISA in LPS-treated NSCs; conditions: vs only LPS-treated NSCs, IM 3 µM, p<0.05
smiles,measurement,setting,value
"CN(C)CCCN1c2ccccc2CCc2ccccc21 [IM, imipramine]",percentages of serotonin (5-HT)-positive cells,[1],significantly increased
same,TNF-α production in the LPS-treated NSCs,[2],effectively reduces
same,expression of Bad,[3],not activated
same,cell survival (MTT assay),[4],significantly increased
same,IL-6 production in the LPS-treated NSCs,[5],effectively reduces
